# Reference: PMC10385868 (Viruses, 2023)
# Read-outs that look alike come from different tables or passages of the source.
# Columns and labels:
# [1] = system: VEEV-Trd; assay: microbe, parasite or virus in culture; assay type: cell-based, Venezuelan equine encephalitis virus
# [2] = system: cell viability
# [3] = molecular target: T1, VEEV nsP2 protease (Venezuelan equine encephalitis virus, UniProt P27282); assay: biochemical; assay type: biochemical
# [4] = rat, microsomes
# [5] = system: VEEV-TC83; assay: microbe, parasite or virus in culture; assay type: cell-based; conditions: Venezuelan equine encephalitis virus, HeLa, read-out: VEEV-TC83 EC50
# [6] = system: WEEV; assay: microbe, parasite or virus in culture; assay type: cell-based; conditions: Western equine encephalitis virus, HeLa, read-out: WEEV EC50
# [7] = molecular target: T1, VEEV nsP2 protease; assay: biochemical; conditions: for kinact/KI: read-out: VEEV nsP2 PROTEASE k2/Ki
# [8] = in vitro; conditions: human
# [9] = system: VEEV-Trinidad; assay: microbe, parasite or virus in culture; assay type: cell-based; conditions: Venezuelan equine encephalitis virus
# [10] = physchem
# [11] = system: EEEV; assay: microbe, parasite or virus in culture; assay type: cell-based; conditions: Eastern equine encephalitis virus, A549, read-out: EEEV EC50
# [12] = in vitro
# [13] = in vitro; conditions: SD, rat, microsomes
# [14] = system: CHIKV; assay: microbe, parasite or virus in culture; assay type: cell-based; conditions: Chikungunya virus, U2OS, read-out: CHIKV EC50
# [15] = in vitro; conditions: PAMPA
# [16] = system: VEEV Trinidad; assay type: cell-based, Venezuelan equine encephalitis virus
# [17] = in vitro; conditions: African green monkey
# [18] = system: VEEV-infected HeLa cells; assay: microbe, parasite or virus in culture; assay type: cell-based, Venezuelan equine encephalitis virus
# [19] = A549, read-out: VEEV-Trinidad EC50
# [20] = Venezuelan equine encephalitis virus
# T1 sequence (P27282 1003-1322 limits assumed): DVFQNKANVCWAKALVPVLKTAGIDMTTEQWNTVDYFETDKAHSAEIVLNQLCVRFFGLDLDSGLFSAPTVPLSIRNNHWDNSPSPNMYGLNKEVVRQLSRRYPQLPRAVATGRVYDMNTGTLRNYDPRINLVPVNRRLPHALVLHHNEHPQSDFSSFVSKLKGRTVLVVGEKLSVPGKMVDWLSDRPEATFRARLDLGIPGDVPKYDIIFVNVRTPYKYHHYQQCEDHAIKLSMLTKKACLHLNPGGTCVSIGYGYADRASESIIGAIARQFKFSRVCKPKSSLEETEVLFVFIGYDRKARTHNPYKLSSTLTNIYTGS
smiles,measurement,setting,value
COc1cc2c(cc1OC)C(c1cc(Br)ccc1F)N(C(=O)CCl)CC2 (stereo not drawn) [MLS001198393-01],EC50,[1]; read-out: EC50,> 16.7 µM
same,CC50,[2],> 50 µM
same,IC50,[3]; read-out: IC50,> 200 µM
CC(C)CCNC(=O)[C@H](CC(C)C)NC(=O)[C@H]1O[C@@H]1C(=O)NCc1ccncc1 [NCGC00488908-01],Rat_SD/Microsomes t1/2,[4],>30 m
same,EC50,[5],9.23 µM
same,EC50,[6],14.6 µM
same,kinact/KI,[7],23 M⁻¹ s⁻¹
same,CC50,[8],> 50 µM
same,EC50,[9]; A549,9.5 µM
same,EC50,[9]; [19],9.45 µM
same,solubility,[10],> 60 µg/mL
same,EC50,[11],≥ 100 µM
same,CC50,[12]; African green monkey,> 100 µM
same,CC50,[12]; human,> 50 µM
same,half-life,[13],> 30 min
same,EC50,[14],50 µM
same,PAMPA,,7.6 ×10⁻⁶ cm/s
same,Papp,[15],7.6 ×10⁻⁶ cm/s
C#Cc1cc(N2CCN(C(=O)c3ccoc3)CC2)n2nc(-c3cccc(Cl)c3)cc2n1 [MLS003116111-01],antiviral activity in plaque assays,[16],notable antiviral activities
O=C(/C=C/c1cccs1)Nc1scc(-c2ccccc2)c1C(=O)O [MLS000773385-01],EC50,[1]; [20],> 50 µM
same,IC50,[3],15 ± 2 µM
same,CC50,[17],> 50 µM
CCCNC(=O)[C@H]1O[C@H]1C(=O)N[C@H](C(=O)N1CCC[C@@H]1C(=O)OC)C(C)CC (stereo partly drawn) [NCGC00163431-03],concentration showing inhibition in cell-based assays,[1],< 15 µM
same,concentration at which toxicity / cytotoxicity was seen,[2]; African green monkey,100 µM
same,inhibition,[18],83%
same,inhibition at 1.562 µM,"[18]; Venezuelan equine encephalitis virus, HeLa",82.9%
CCC(C)C(NC(=O)C1OC1C(=O)NC(CC(C)C)C(=O)NCCC(C)C)C(=O)N1CCCC1C(=O)OCc1ccccc1 (stereo not drawn) [NCGC00484087-01],Rat_SD/Microsomes t1/2,[4],1.5 m
same,EC50,[5],2.17 µM
same,EC50,[6],5.74 µM
same,Ki,[7],5 µM
same,kinact/KI,[7],100 M⁻¹ s⁻¹
same,CC50,[8],> 50 µM
same,EC50,[9]; A549,8 µM
same,EC50,[9]; [19],7.9 µM
same,solubility,[10],4.1 µg/mL
same,EC50,[11],13.2 µM
same,CC50,[12]; African green monkey,> 100 µM
same,CC50,[12]; human,> 50 µM
same,half-life,[13],1.5 min
same,PAMPA,,1089.1 ×10⁻⁶ cm/s
same,Papp,[15],1090 ×10⁻⁶ cm/s
Cc1ccc(C2=NN(C(=O)CCl)C(c3ccco3)C2)o1 (stereo not drawn) [MLS001179882-01],EC50,[1]; read-out: EC50,> 50 µM
same,CC50,[2],> 50 µM
same,IC50,[3]; read-out: IC50,> 200 µM
O=c1cc(N2CCOCC2)oc2c1ccc1ccccc12 [NCGC00165840-02],Rat_SD/Microsomes t1/2,[4],>30 m
same,Permeability (PAMPA_Pion_Lipid),PAMPA,294.2 ×10⁻⁶ cm/s
O=c1[nH]c(=O)n(-c2ccccc2F)c(O)c1/C=C1\C=Nc2ccccc21 [MLS001197204-01],EC50,[1]; read-out: EC50,> 50 µM
same,CC50,[2],> 50 µM
same,IC50,[3]; read-out: IC50,30 ± 20 µM
CCc1nc(N2CCN(C(=O)CCl)CC2)c2c3c(sc2n1)CC(C)CC3 (stereo not drawn) [MLS001212815-01],EC50,[1]; read-out: EC50,> 50 µM
same,CC50,[2],> 50 µM
same,IC50,[3]; read-out: IC50,> 200 µM
CC(C)CCNC(=O)[C@H](CC(C)C)NC(=O)[C@H]1O[C@@H]1C(=O)NCc1cccnc1 [NCGC00488907-01],Rat_SD/Microsomes t1/2,[4],6.4 m
same,EC50,[5],5.22 µM
same,EC50,[6],8.76 µM
same,kinact/KI,[7],86 M⁻¹ s⁻¹
same,CC50,[8],> 50 µM
same,EC50,[9]; A549,6 µM
same,EC50,[9]; [19],5.97 µM
same,EC50,[11],< 50 µM
same,CC50,[12]; African green monkey,> 100 µM
same,CC50,[12]; human,> 50 µM
same,half-life,[13],6.4 min
same,EC50,[14],25.9 µM
same,PAMPA,,<4.3 ×10⁻⁶ cm/s
same,Papp,[15],< 4.3 ×10⁻⁶ cm/s
CC(=O)NC1C(=O)N(CCN2CCOCC2)c2ccc(Br)cc21 (stereo not drawn) [MLS001215987-01],EC50,[1]; [20],> 50 µM
same,IC50,[3],14 ± 3 µM
same,CC50,[17],> 50 µM
N=c1c2c(-c3ccccc3)c(-c3ccccc3)n(Cc3ccccc3)c2ncn1C1CCC(O)CC1 (stereo not drawn) [NCGC00247785-13],antiviral activity in plaque assays,[16],notable antiviral activities
CC(C)CCNC(=O)[C@H](CC(C)C)NC(=O)[C@H]1O[C@@H]1C(=O)NCc1ccc(C#N)cc1 [NCGC00488904-01],EC50,[5],4.09 µM
same,EC50,[6],5.15 µM
same,kinact/KI,[7],61 M⁻¹ s⁻¹
same,CC50,[8],> 50 µM
same,EC50,[9]; A549,4 µM
same,EC50,[9]; [19],4.29 µM
same,EC50,[11],16.2 µM
same,CC50,[12]; African green monkey,> 100 µM
same,CC50,[12]; human,> 50 µM
same,EC50,[14],14.8 µM
CC(C)CCNC(=O)[C@H](CC(C)C)NC(=O)[C@H]1O[C@@H]1C(=O)NCc1cccc(C#N)c1 [NCGC00488909-01],EC50,[5],1.48 µM
same,EC50,[6],5.02 µM
same,Ki,[7],3 µM
same,kinact/KI,[7],862 M⁻¹ s⁻¹
same,CC50,[8],> 50 µM
same,EC50,[9]; A549,1.8 µM
same,EC50,[9]; [19],1.76 µM
same,EC50,[11],43 µM
same,CC50,[12]; African green monkey,> 100 µM
same,CC50,[12]; human,> 50 µM
same,EC50,[14],9.85 µM
O=C(Nc1ccccc1)NN(C(=O)CCl)c1ccccc1 [MLS001177992-01],EC50,[1]; read-out: EC50,> 50 µM
same,CC50,[2],> 50 µM
COc1ccc(C2CC(c3cccs3)=NN2C(=O)CCl)cc1OC (stereo not drawn) [MLS001178292-01],antiviral activity against VEEV-Trd in cell-based assays,[1]; at 50 µM,did not demonstrate significant antiviral activity
same,CC50,[2],> 50 µM
same,cytotoxicity,[2],cytotoxic
same,IC50,[3]; read-out: IC50,> 200 µM
O=c1[nH]c2ccccc2n1CCCN1CCN(C(c2ccccc2)c2ccccc2)CC1 [oxatomide],antiviral activity in plaque assays,[16],notable antiviral activities
same,reduction of VEEV viral replication in plaque assays,[16],> 5 log
CC(=O)NC1C(=O)N(CCN2CCOCC2)c2ccc(F)cc21 (stereo not drawn) [MLS001215963-01],IC50,[3],16 ± 3 µM
CC(C)CCNC(=O)[C@H](CC(C)C)NC(=O)[C@H]1O[C@@H]1C(=O)NCCCO [NCGC00487434-01],Rat_SD/Microsomes t1/2,[4],>30 m
same,EC50,[9]; A549,70 to 80 µM
same,solubility,[10],22 µg/mL
same,CC50,[12]; African green monkey,> 100 µM
Cc1cc(C(=O)CCl)c(C)n1-c1cccc([N+](=O)[O-])c1 [MLS000877947-01],EC50,[1]; read-out: EC50,> 50 µM
same,CC50,[2],> 50 µM
same,IC50,[3]; read-out: IC50,> 200 µM
COc1cc(NS(C)(=O)=O)ccc1Nc1c2ccccc2nc2ccccc12 [amsacrine],antiviral activity in plaque assays,[16],notable antiviral activities
CC(C)CCNC(=O)C(CC(C)C)NC(=O)C1OC1C(=O)O (stereo not drawn) [NCGC00018306-02],concentration showing inhibition in cell-based assays,[1],< 15 µM
CC[C@H]1CN2CCc3cc(OC)c(OC)cc3[C@@H]2C[C@@H]1C[C@H]1NCCc2cc(OC)c(OC)cc21 [emetine],antiviral activity in plaque assays,[16],notable antiviral activities
CCc1ccc2c(c1)C(NC(C)=O)C(=O)N2CCN1CCOCC1 (stereo not drawn) [MLS001215951-01],EC50,[1]; [20],> 50 µM
same,IC50,[3],18 ± 7 µM
same,CC50,[17],> 50 µM
O=C(CSc1ccccn1)Nc1nonc1[N+](=O)[O-] [MLS001030320-01],EC50,[1]; read-out: EC50,> 50 µM
same,CC50,[2],> 50 µM
same,IC50,[3]; read-out: IC50,> 100 µM
CC(C)CCNC(=O)[C@H](CC(C)C)NC(=O)[C@H]1O[C@@H]1C(=O)NCCCCO [NCGC00488906-01],Rat_SD/Microsomes t1/2,[4],>30 m
same,EC50,[5],26.6 µM
same,EC50,[6],20.4 µM
same,kinact/KI,[7],12 M⁻¹ s⁻¹
same,CC50,[8],> 50 µM
same,EC50,[9]; A549,26 µM
same,EC50,[9]; [19],26.4 µM
same,solubility,[10],15.9 µg/mL
same,EC50,[11],> 100 µM
same,CC50,[12]; African green monkey,> 100 µM
same,CC50,[12]; human,> 50 µM
same,half-life,[13],> 30 min
same,EC50,[14],18.5 µM
